Source: patent US9394263B2, “Substituted hetero-azepinones” (priority 2012, dated 2016)
Structures can show the parent of a compound that is named as a salt.

Experiments:
BIR2 domain of XIAP = BIR2 domain of XIAP (Homo sapiens (Human), UniProt P98170, C202A/C213G); experiment: TR-FRET assay for BIR2: inhibition of binding of XIAP BIR2 domain to Peptide A (SMAC-derived peptide); settings: read-out: BIR2 IC50;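 also: percent inhibition measured across a concentration series of each compound, from which the IC50 was derived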
Sequence of BIR2 domain of XIAP (P98170 other isoform, or with tags, fused parts or gaps, stated change not applied): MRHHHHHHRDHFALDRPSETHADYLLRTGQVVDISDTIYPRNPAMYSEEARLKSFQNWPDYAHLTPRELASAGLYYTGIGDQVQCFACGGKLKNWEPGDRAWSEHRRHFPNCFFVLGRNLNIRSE
Method: TR-FRET Assay for BIR2 and BIR3
The peptides were labeled with the fluorescent tags FITC or TAMRA and Kd values were determined by fluorescence polarization assay.
The peptide sequence was derivatized with biotin to provide [sequence]-(8-biotin)-OH 1:2 TFA as the substrate for the TR-FRET assay.
The XIAP protein sequence was obtained from the SWISS-PROT protein sequence database and the BIR2 and BIR3 domains were derived from that.
Percentage of inhibition at each concentration was determined to generate an IC50 value for each test compound.

BIR3 domain of XIAP = BIR3 domain of XIAP (Homo sapiens (Human), UniProt P98170); experiment: TR-FRET assay for BIR3: inhibition of binding of XIAP BIR3 domain to Peptide A (SMAC-derived peptide); settings: read-out: BIR3 IC50
Sequence of BIR3 domain of XIAP (P98170 241-356 with tags or gaps limits assumed): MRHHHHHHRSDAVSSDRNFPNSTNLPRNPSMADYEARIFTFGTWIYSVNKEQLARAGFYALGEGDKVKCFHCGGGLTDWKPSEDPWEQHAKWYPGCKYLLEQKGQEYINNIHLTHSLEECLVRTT

## CN[C@@H](C)C(=O)N[C@H]1COc2ccccc2N(Cc2nn(-c3ccccc3C#N)c3cc(Br)ccc23)C1=O [Example 72, (S)-N-((S)-5-((6-Bromo-1-(2-cyanophenyl)-1H-indazol-3-yl)methyl)-4-oxo-2,3,4,5-tetrahydrobenzo[b][1,4]oxazepin-3-yl)-2-(methylamino)propanamide trifluoroacetate]
BIR2 domain of XIAP
  IC50: 281 nM
BIR3 domain of XIAP
  IC50: > 54800 nM
